Here are results for one substance from patent US9475028B2 (priority 2006, dated 2016).

The assay has as its system A549 (Lung Mesothelial Carcinoma) cells. The format is cell-based.

Entries after “also recorded” stand apart in the source; their conditions may differ.

With C60(OH)n (n˜1-48) [PHF], the “observed damage to cells” value is listed as “restricted to the top layer of cells; also recorded: damage of multiple layers of cells”.
